Drawing on patent publication US5681833A, “Benzodiazepine derivatives” (Merck, Sharp & Dohme Ltd., priority 1992, dated 1997), this text covers IC50 for 17 molecules.

pIC50: −log10 of the molar value. Read-outs that look alike come from different tables or passages of the source.

The target of test [1] is T1, CCK receptor (brain) (Cavia porcellus, UniProt H0VZC5).
T1 construct: the cortex was removed and homogenized in 25 mL ice-cold 0.32M sucrose; from tissue; host or cells: cortex of male Hartley guinea pigs, P2 membranes
T1 sequence (H0VZC5 1-426): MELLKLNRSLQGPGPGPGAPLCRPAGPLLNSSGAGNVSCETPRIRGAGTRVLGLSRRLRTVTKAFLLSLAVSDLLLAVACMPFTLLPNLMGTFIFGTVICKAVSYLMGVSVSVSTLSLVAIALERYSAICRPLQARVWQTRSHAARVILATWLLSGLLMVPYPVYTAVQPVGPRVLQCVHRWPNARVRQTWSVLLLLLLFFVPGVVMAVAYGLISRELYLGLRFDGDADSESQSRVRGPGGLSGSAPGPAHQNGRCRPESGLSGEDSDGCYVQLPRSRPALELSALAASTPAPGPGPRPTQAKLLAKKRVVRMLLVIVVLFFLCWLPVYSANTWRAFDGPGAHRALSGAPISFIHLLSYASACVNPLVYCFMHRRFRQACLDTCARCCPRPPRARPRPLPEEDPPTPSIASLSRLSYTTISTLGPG
Put plainly: CCK Receptor Binding (Brain), inhibition of specific 125I-CCK-8 binding. The arrangement: species or system guinea pig (male Hartley). The procedure:
2. CCK Receptor Binding (Brain)
CCK-8 sulphated was radiolabelled and the binding was performed according to the description for the pancreas method with minor modifications.
Male Hartley guinea pigs (300-500 g) were sacrificed by decapitation and the cortex was removed and homogenized in 25 mL ice-cold 0.32M sucrose. The homogenates were centrifuged at 1000 g for 10 minutes and the resulting supernatant was recentrifuged at 20,000 g for 20 minutes. The P2 pellet was resuspended in binding assay buffer (20mM HEPES, 5 mM MgCl2, 0.25 mg/ml bacitracin, 1 mM EGTA pH 6.5 at 25° C.), using a Teflon (trademark) homogenizer (5 strokes at 500 rpm) to give a final concentration of 10 mg original wet weight/1.2 ml buffer. […] All assays were run in duplicate. The reaction mixtures were incubated at 25° C. for 2 hours and then the reaction was terminated by rapid filtration (Brandell 24 well cell harvester) on Whatman GF/C filters with 3×5 ml washes of cold 100 mM NaCl. The radioactivity on the filters was counted with a LKB gamma counter.

The target in test [2] is T2, CCK receptor (pancreas) (Rattus norvegicus, UniProt P30551).
T2 construct: The whole pancreas was dissected free of fat tissue and was homogenized; from tissue; host or cells: whole pancreas of male Sprague-Dawley rats, homogenate membranes
T2 sequence (P30551 1-444): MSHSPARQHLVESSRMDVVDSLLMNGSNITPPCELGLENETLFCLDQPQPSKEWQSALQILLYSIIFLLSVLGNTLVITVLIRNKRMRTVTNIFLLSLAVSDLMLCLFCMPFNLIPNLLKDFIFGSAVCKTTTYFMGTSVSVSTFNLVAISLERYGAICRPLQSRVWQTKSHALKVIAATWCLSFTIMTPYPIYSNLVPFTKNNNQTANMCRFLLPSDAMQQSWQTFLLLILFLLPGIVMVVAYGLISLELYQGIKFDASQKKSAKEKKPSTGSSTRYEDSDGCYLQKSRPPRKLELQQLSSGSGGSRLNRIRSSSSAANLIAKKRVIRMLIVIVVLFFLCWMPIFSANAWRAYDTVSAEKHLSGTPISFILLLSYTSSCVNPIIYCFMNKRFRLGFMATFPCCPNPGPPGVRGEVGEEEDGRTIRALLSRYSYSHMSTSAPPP
Put plainly: CCK Receptor Binding (Pancreas), inhibition of specific 125I-CCK-8 binding. Set-up: species or system rat (male Sprague-Dawley). On the procedure: 1. CCK Receptor Binding (Pancreas)
CCK-8 sulphated was radiolabelled with ^125 I-Bolton Hunter reagent (2000 Ci/mmole). Receptor binding was performed according to Chang and Lotti (Proc. Natl. Acad. Sci. 83, 4923-4926, 1986) with minor modifications.
Male Sprague-Dawley rats (150-200 g) were sacrificed by decapitation. The whole pancreas was dissected free of fat tissue and was homogenized in 25 volumes of ice-cold 10 mM N-2-hydroxyethyl-piperazine-N'-2-ethane sulphonic acid (HEPES) buffer with 0.1% soya bean trypsin inhibitor (pH 7.4 at 25° C.) with a Kinematica Polytron. The homogenates were centrifuged at 47,800 g for 10 min. Pellets were resuspended in 10 volumes of binding assay buffer (20 mM (HEPES)), 1 mM ethylene glycol-bis-(β-aminoethylether-N,N'-tetraacetic acid) (EGTA), 5 mM MgCl2, 150 mM NaCl, bacitracin 0.25 mg/ml, soya bean trypsin inhibitor 0.1 mg/ml, and bovine serum albumin 2 mg/ml pH 6.5 at 25° C.) using a Teflon (trademark) homogenizer, 15 strokes at 500 rpm. The homogenate was further diluted in binding assay buffer to give a final concentration of 0.5 mg original wet weight/1 ml buffer. […] All assays were run in duplicate. The reaction mixtures were incubated at 25° C. for 2 hours and the reaction terminated by rapid filtration (Brandell 24 well cell harvester) over Whatman GF/C filters, washing 3×4 mls with ice-cold 100 Mm NaCl. The radioactivity on the filters was counted with a LKB gamma counter.

[3] abbreviates: guinea pig cortex membranes, 50 pM 125I-CCK-8, 25° C., 2 hours, pH 6.5, read-out: IC50 125I-CCK Brain.
[4] abbreviates: rat pancreas membranes, 50 pM 125I-CCK-8, 25° C., 2 hours, pH 6.5, read-out: IC50 125I-CCK Pancreas.

For the molecule `Cc1ccc(NC(=O)N[C@@H]2N=C(C3CCCCC3)c3ccccc3N(C)C2=O)cc1Nc1nnn[nH]1` [Example 10, (+)-N-[3(R)-5-Cyclohexyl-2,3-dihydro-1-methyl-2-oxo-1H-1,4-benzodiazepin-3-yl]-N'-[4-methyl-3-{(tetrazol-5-yl)amino}phenyl]urea], the pIC50 (as a rule, the negative decadic logarithm of the IC50, by convention in mol/L) in test [1] (setting [3]) is 10.38; in test [2] (setting [4]), 6.10.
For `Cc1ccc(NC(=O)N[C@@H]2N=C(c3ccccc3)c3ccccc3N(C)C2=O)cc1Nc1nn[nH]n1` [Example 12, (+)-N-[3(R)-2,3-Dihydro-1-methyl-2-oxo-5-phenyl-1H-1,4-benzodiazepin-3-yl]-N'-[4-methyl-3-{(tetrazol-5-yl)amino}phenyl]urea], the pIC50 in test [1] is 8.96; in test [2], below 5.52.
Regarding `Cc1ccc(NC(=O)NC2N=C(c3ccccc3)c3ccccc3N(C(C)(C)C)C2=O)cc1Nc1nnn[nH]1` (racemic) [Example 16, N-[3(R,S)-1-tert-Butyl-2,3-dihydro-2-oxo-5-phenyl-1H-1,4-benzodiazepin-3-yl]-N'-[4-methyl-3-{(tetrazol-5-yl)amino}phenyl]urea], the pIC50 in test [1] (setting [3]) was 6.30; in test [2] it was 5.44.
`CN1C(=O)[C@H](NC(=O)Nc2cccc(Nc3nnn[nH]3)c2)N=C(C2CCCCC2)c2ccccc21` [Example 5, (+)-N-[3(R)-5-Cyclohexyl-2,3-dihydro-1-methyl-2-oxo-1H-1,4-benzodiazepin-3-yl]-N'-[3-{(tetrazol-5-yl)amino}phenyl]urea]: the pIC50 in test [1] (setting [3]) was 9.15; in test [2] (setting [4]) it was 6.70.
Taken in the same sequence, the figures for `CN1C(=O)[C@H](NC(=O)Nc2cccc(CNc3nnn[nH]3)c2)N=C(C2CCCCC2)c2ccccc21` [Example 6, (+)-N-[3(R)-5-Cyclohexyl-2,3-dihydro-1-methyl-2-oxo-1H-1,4-benzodiazepin-3-yl]-N'-[3-{(tetrazol-5-yl)aminomethyl}phenyl]urea] were 9.55 and 6.82.
`CN1C(=O)[C@H](NC(=O)Nc2ccc3c(c2)N(c2nn[nH]n2)CC3)N=C(c2ccccc2)c2ccccc21` [Example 14, (+)-N-[3(R)-2,3-Dihydro-1-methyl-2-oxo-5-phenyl-1H-1,4-benzodiazepin-3-yl]-N'-[1-(tetrazol-5yl)indolin-6-yl]urea] gave a negative-log IC50 (pIC50) in test [1] of 9.96.
As to `CN1C(=O)[C@H](NC(=O)Nc2cccc(CNc3nn[nH]n3)c2)N=C(c2ccccc2)c2ccccc21` [Example 9, (+)-N-[3(R)-2,3-Dihydro-1-methyl-2-oxo-5-phenyl-1H-1,4-benzodiazepin-3-yl]-N'-[3-{(tetrazol-5-yl)aminomethyl}phenyl]urea], the pIC50 is 8.13 in test [1] and below 5.52 in test [2].
Taken in the same sequence, the figures for `CN1C(=O)[C@H](NC(=O)Nc2cccc(N(C)c3nn[nH]n3)c2)N=C(c2ccccc2)c2ccccc21` [Example 7, (+)-N-[3(R)-2,3-Dihydro-1-methyl-2-oxo-5-phenyl-1H-1,4-benzodiazepin-3-yl]-N'-[3-{N-methyl-N-(tetrazol-5-yl)amino}phenyl]urea] were 9.24 and below 5.52.
Taken in the same sequence, the figures for `CN1C(=O)[C@H](NC(=O)Nc2cccc(Nc3nn[nH]n3)c2)N=C(c2ccccc2)c2ccccc21` [Example 8, (+)-N-[3(R)-2,3-Dihydro-1-methyl-2-oxo-5-phenyl-1H-1,4-benzodiazepin-3-yl]-N'-[3-{(tetrazol-5-yl)amino}phenyl]urea] were 8.24 and below 5.52.
In the case of `CN1C(=O)C(NC(=O)Nc2cccc(N(C)c3nnn[nH]3)c2)N=C(C2CCCCC2)c2ccccc21` (racemic) [Example 3, N-[3(R,S)-5-Cyclohexyl-2,3-dihydro-1-methyl-2-oxo-1H-1,4-benzodiazepin-3-yl]-N'-[3-{N-methyl-N-(tetrazol-5-yl)amino}phenyl]urea], the pIC50 in test [1] (setting [3]) is 9.96; in test [2] (setting [4]) it was 8.00.
In the case of `CCCN1C(=O)C(NC(=O)Nc2cccc(N(C)c3nnn[nH]3)c2)N=C(N2CCN(C)CC2)c2ccccc21` (single isomer, unassigned; (-)) [Example 17, (-)-N-[2,3-Dihydro-5-(4-methylpiperazin-1-yl)-2-oxo-1-propyl-1H-1,4-benzodiazepin-3-yl]-N'-[3-{N-methyl-N-(tetrazol-5-yl)amino}phenyl]urea], the pIC50 in test [1] (setting [3]) is 9.03; in test [2] (setting [4]), below 5.52.
In the case of `Cc1ccc(NC(=O)N[C@@H]2N=C(C3CCCCC3)c3ccccc3N(C)C2=O)cc1N(C)c1nn[nH]n1` [Example 11, (+)-N-[3(R)-5-Cyclohexyl-2,3-dihydro-1-methyl-2-oxo-1H-1,4-benzodiazepin-3-yl]-N'-[4-methyl-3-{N-methyl-N-(tetrazol-5-yl)amino}phenyl]urea], in test [2] (setting [4]), the pIC50 was 6.22.
In the case of `CCCN1C(=O)C(NC(=O)Nc2cccc(CNc3ncc[nH]3)c2)N=C(C2CCCCC2)c2ccccc21` (racemic) [Example 18, N-[3(R,S)-5-Cyclohexyl-2,3-dihydro-2-oxo-1-propyl-1H-1,4-benzodiazepin-3-yl]N'-[3-[(1H-imidazol-2-ylamino)methyl]phenyl]urea], the pIC50 in test [1] (setting [3]) is 7.85; in test [2] (setting [4]) it was 6.96.
With `CN1C(=O)C(NC(=O)Nc2cccc(Nc3nnn[nH]3)c2)N=C(C2CCCCC2)c2ccccc21` (racemic) [Example 2, N-[3(R,S)-5-Cyclohexyl-2,3-dihydro-1-methyl-2-oxo-1H-1,4-benzodiazepin-3-yl]-N'-[3-{(tetrazol-5-yl)amino}phenyl]urea], the results for the pIC50 in test [1] (setting [3]) and in test [2] (setting [4]) were 9.51 and 8.19, respectively.
For `CN1C(=O)C(NC(=O)Nc2cccc(CNc3nnn[nH]3)c2)N=C(C2CCCCC2)c2ccccc21` (racemic) [Example 1, N-[3(R,S)-5-Cyclohexyl-2,3-dihydro-1-methyl-2-oxo-1H-1,4-benzodiazepin-3-yl]-N'-[3-{(tetrazol-5-yl)aminomethyl}phenyl]urea], in that order: 9.09 and 8.02.
Taken in the same sequence, the figures for `CN1C(=O)C(NC(=O)Nc2cccc(CNc3ncc[nH]3)c2)N=C(C2CCCCCC2)c2ccccc21` (racemic) [Example 20, N-[3(R,S)-5-Cycloheptyl-2,3-dihydro-1-methyl-2-oxo-1H -1,4-benzodiazepin-3-yl]N'-[3-[(1H-imidazol-2-ylamino)methyl]phenyl]urea] were 7.47 and 7.07.
For `CN1C(=O)[C@H](NC(=O)Nc2cccc(N(C)c3nnn[nH]3)c2)N=C(C2CCCCC2)c2ccccc21` [Example 4, (+)-N-[3(R)-5-Cyclohexyl-2,3-dihydro-1-methyl-2-oxo-1H-1,4-benzodiazepin-3-yl]-N'-[3-{N-methyl-N-(tetrazol-5-yl)amino}phenyl]urea], in that order: 10.00 and 6.40.
